Consider 10 compounds from PMC12366525, “Characterization of allosteric modulators that disrupt androgen receptor co-activator protein-protein interactions to alter transactivation–Drug leads for metastatic castration resistant prostate cancer” (SLAS discovery : advancing life sciences R & D, 2023).

The structures appear in SMILES notation. Values joined by “and” are separate entries in the source; they are usually repeats but may differ in a detail not shown here. Equal entries are not always repeated.

Series [1] concerns PSA. The experiment in a line: Western blot of PSA expression in C4–2 cells. Type of series: cell-based, human. The conditions noted are these: C4–2 cells. The procedure:
Cell lysate protein concentrations were determined in a bicinchoninic acid (BCA) assay. Equal amounts of cell protein were mixed with SDS-PAGE sample buffer and placed in a heat block at 100 °C for 5 min. The protein constituents of C4–2 cells were separated by SDS-PAGE on 10% separating gels, transferred to nitrocellulose membranes and western blots were probed overnight at 4 °C with a 1:1000 dilution of a rabbit anti-hPSA (Cell Signaling, Danvers, MA) primary antibody in Tris-buffered saline (TBS) Tween 20 (TBST) containing 5% non-fat milk. Membranes were washed 3x in TBST for 10 min, then incubated for 1 h at room temperature with a 1:10,000 dilution of the goat anti-rabbit IgG horse radish peroxidase (HRP) conjugated secondary antibody (Invitrogen, Carlsbad, CA) in TBST containing 5% non-fat milk. Western blots were then washed 3x in TBST and developed with Pierce enhanced chemiluminescence (ECL) western blotting substrate (Thermo Fisher Scientific, Waltham, MA). Images of western blot ECL bands were acquired on an iBright 1500 imaging system (Thermo Fisher Scientific, Waltham, MA) and quantified by iBright image analysis software.

Series [2] deals with PSA. Put plainly: Dot blot of PSA secretion by C4–2 cells. Type of series: cell-based, human. The conditions noted are these: C4–2 cells; 10 nM DHT 24 h. The procedure:
To determine PSA secretion levels, C4–2 cells were seeded at 1.4 × 10 [5] cells/well in 12-well plates and treated as described above for PSA cell expression experiments. […] 500 μL of conditioned media supernatant was added to the wells of 96-well to Bio-blot apparatus (BioRad, Hercules, CA) containing a nitrocellulose membrane and was allowed to pass through and attach to the membrane under gravity for 3–4 h at room temperature. The membrane was washed 1x with 500 μL TBS under vacuum, blocked with 1% BSA in TBST for 1 h, and then incubated overnight at 4 °C with the primary rabbit anti-hPSA antibody (Cell Signaling, Danvers, MA) diluted 1:1000 in TBST plus 1% BSA. Dot blots were washed 3x in 10 mL of TBST for 10 min, then incubated for 1 h with secondary goat anti-rabbit-IgG HRP conjugated antibody (Invitrogen, Carlsbad, CA) diluted 1:10,000 in TBST plus 1% Bovine Serum Albumin (BSA), washed 3x with 10 mL of TBST for 10 min, and then developed with Pierce ECL western blotting substrate. Images of ECL dot blots were acquired on an iBright 1500 imaging system and quantified by iBright image analysis software.

Series [3] has as its target T1, AR-TIF2 PPI (Homo sapiens, UniProt P10275).
T1 construct: expressed in transfected cells; host or cells: U-2 OS osteosarcoma cells, co-infected with recombinant adenoviruses
T1 sequence (P10275 663-920 limits assumed): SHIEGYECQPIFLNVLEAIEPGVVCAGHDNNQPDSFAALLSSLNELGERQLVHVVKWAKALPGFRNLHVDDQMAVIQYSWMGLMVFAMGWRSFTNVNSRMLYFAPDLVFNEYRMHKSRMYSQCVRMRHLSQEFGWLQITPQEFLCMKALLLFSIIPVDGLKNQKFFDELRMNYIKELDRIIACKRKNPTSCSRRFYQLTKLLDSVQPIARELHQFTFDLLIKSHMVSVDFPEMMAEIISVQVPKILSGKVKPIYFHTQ
The experiment in a line: AR-TIF2 PPI biosensor (PPIB) HCS assay, inhibition of DHT-induced AR-TIF2 PPI formation. In kind it is cell-based. The conditions noted are these: U-2 OS cells; compounds 3 h prior to 25 nM DHT for 90 min. The procedure:
(§1) Daughter plates containing 2 μL of the serially diluted compounds in DMSO were prepared and replicated from 384-well serial dilution master plates using a Janus MDT platform outfitted with a 384-well transfer head. Aluminum adhesive plate seals were applied, and plates were stored at −20 °C. For bioassay testing, daughter plates were withdrawn from −20 °C storage, thawed to ambient temperature, and centrifuged for 1 min at 100 × g, and plate seals were removed before 38 μL of serum-free media (SFM) was transferred into wells using a Matrix pipettor (ThermoFisher, Waltham, MA), to generate an intermediate stock concentration of validation compounds ranging from 0.977 to 500 μM (5.0% DMSO). Diluted compounds were mixed by repeated aspiration and dispensation using a 384-well P30 dispensing head on the Janus MDT platform and then, 5 μL of diluted compounds was transferred to assay plate wells to provide a final concentration range from 0.0977 to 50 μM (0.5% DMSO).
(§2) The AR-TIF2 PPIB HCS assay was performed in U-2 OS osteosarcoma cells as described previously. Briefly, U-2 OS cells were coinfected with recombinant adenovirus biosensor expression constructs and seeded at 2500 cells per well in 384-well collagen-coated microplates (Greiner BioOne #781956) and plates were incubated overnight at 37°C in 5% CO2 and 95% humidity. […] After the appropriate time, assay plates were fixed by transfer of 50 μL of pre-warmed (37°C) 7.4% formaldehyde and 2 μg/mL Hoechst 33342 in PBS and incubation at room temperature for 30 min. Liquid was aspirated, plates were washed twice with 85 μL PBS, leaving the final wash in the plate. Plates were sealed with adhesive aluminum plate seals, and fluorescent images of three fields of view were acquired in the DAPI (Hoechst stained nuclei), FITC (TIF2-GFP) and Texas Red (AR-RFP) channels on an ImageXpress Micro (IXM) automated HCS platform (Molecular Devices LLC, Sunnyvale, CA) using a 10X Plan Fluor 0.3 NA objective. Images were analyzed using the Translocation Enhanced (TE) image analysis module of the MetaXpress software as described previously.
(§3) In 384-well assays, DMSO minimum (n = 32) and maximum (n = 32) plate control wells were utilized to calculate signal-to-background ratios (S:B) and Z’-factor coefficient assay performance quality control statistics, and to normalize the signals of compound treated wells and to represent 0% and 100% respectively. For the 96-well AR-LBD H^3-DHT radioligand binding assay, eight minimum and maximum plate control wells were utilized to normalize the data. For the PC cell line growth inhibition assays we used the DMSO control data from the T0 and T72 assay plates to assess the dynamic range of the T0 to T72 cell growth, and to calculate S:B ratios and Z’-factor coefficient statistics for the assay signal window (T0 to T72). To normalize the 72 h compound exposure PC growth inhibition data, the signals from the compound treated wells were processed and expressed as% of the T72 DMSO plate controls. IC50 and GI50 values for each of the bioassays were calculated using Graph-Pad Prism 9 software to plot and fit data to curves using the Sigmoidal dose response variable slope equation Y = Bottom + [Top-Bottom]/ [1 + 10^^(LogEC50-X)*HillSlope].

The target in series [4] is T1, AR-TIF2 PPI. The experiment in a line: AR-TIF2 PPI biosensor (PPIB) HCS assay, disruption of pre-formed AR-TIF2 PPI complexes. In kind it is cell-based. The note with it: U-2 OS cells; 25 nM DHT 90 min prior to compounds for 3 h. The procedure: as §1, §2, §3
The subject of another series is U-2 OS cells. Put plainly: AR-TIF2 PPIB cell loss (Hoechst stained nuclei). Type of series: cell-based. The conditions noted are these: 4.5 h compound exposure. The protocol:
as §2

A further series concerns DU-145 cells. The experiment in a line: Prostate cancer cell line growth inhibition assay, DU-145. In kind it is cell-based. The note with it: Homo sapiens, DU-145, 72 h; read-out: DU145 GI50 (AR−). The procedure:
(§4) The PC-3, DU-145, LNCaP, C4–2, and 22Rv1 PC cell line growth inhibition assays have been described previously. On day 1, each PC cell line was harvested, counted, and seeded into two 384-well assay plates, a time zero (T0) and a time 72 h (T72) plate. PC cell lines were all seeded at 1000 cells per well in 45 μL of tissue culture media in uncoated white clear bottom 384-well assay plates (VWR, # 82050–076) using a Matrix electronic multichannel pipette (Thermo Fisher Scientific, Waltham, MA) and cultured overnight at 37 °C, 5% CO2, and 95% humidity. On day 2, 25 μL of the Cell Titer Glo (CTG) (Promega Corporation, Madison, WI) detection reagent was dispensed into the wells of the T0 assay plate using a Matrix electronic multichannel pipette, and the RLUs were captured on the SpectraMax M5e (Molecular Devices LLC, Sunnyvale, CA) microtiter plate reader. Also on day 2, 5 μL of compounds were transferred into the test wells of the T72 384-well assay plates which were returned to the incubator for 72 h. Control wells received DMSO alone. On day 5, 25 μL of the CTG detection reagent was dispensed into the wells of the T72 assay plate using a Matrix electronic multichannel pipette, and the RLU’s were captured on the SpectraMax M5e microtiter plate reader platform.
as §3

The next series concerns PC-3 cells. Put plainly: Prostate cancer cell line growth inhibition assay, PC-3. The conditions noted are these: Homo sapiens, PC-3, 72 h, read-out: PC3 GI50 (AR−). In kind it is cell-based. The procedure: as §4, §3
A further series deals with 22Rv1 cells. The experiment in a line: Prostate cancer cell line growth inhibition assay, 22Rv1. Type of series: cell-based. The note with it: Homo sapiens, 22Rv1, 72 h; read-out: 22Rv1 GI50 (AR+). The protocol: as §4, §3
A further series has as its system LNCaP cells. Put plainly: Prostate cancer cell line growth inhibition assay, LNCaP. In kind it is cell-based. The conditions noted are these: Homo sapiens, LNCaP, 72 h; read-out: LNCap GI50 (AR+). The protocol:
as §4, §3

The test system of a further series is C4–2 cells. The experiment in a line: Prostate cancer cell line growth inhibition assay, C4–2. Type of series: cell-based. The conditions noted are these: C4-2, 72 h; read-out: C4–2 GI50 (AR +). The protocol:
as §4, §3

The test system of series [5] is PC cell lines positive (LNCaP, C4–2, & 22Rv1 cells) or negative (PC-3 & DU-145) for AR. The experiment in a line: Prostate cancer cell line growth inhibition assays, panel statements. Type of series: cell-based. The note with it: ALL5; all 5 PC cell lines; 72 h; ≥50% growth inhibition not achieved at ≤100 μM; read-out: GI50 in any PC cell line. The protocol: as §4, §3

The test system of series [6] is LNCaP mouse xenograft models. The conditions noted are these: cited from earlier work.

As for `C[C@]12CCC(=O)C[C@@H]1CC[C@@H]1[C@@H]2CC[C@]2(C)[C@@H](O)CC[C@@H]12` [DHT, 5α-dihydrotestosterone, reference compound], the “Increase of PSA levels in cells over untreated controls” value with PSA [1] (10 nM DHT 24 h) is 12.3 fold and 11.4 fold. For the same compound, the “Increase of PSA levels in conditioned media over untreated controls” value in the series with PSA [2] was 2.4 fold.

As for `Cc1nsc(NC(=O)N2CCC(N3CCCC3=O)CC2)n1` [S2–9], the half-inhibitory concentration (IC50) against AR-TIF2 PPI [3] and against AR-TIF2 PPI [4] was over 100 µM each time. The “AR-TIF2 PPIB Cell Loss” value with U-2 OS cells was over 100 µM. The GI50 (in the series with DU-145 cells; in the series on PC-3 cells; in the series on 22Rv1 cells; in the series on LNCaP cells; in the series with C4–2 cells; in series [5]) was over 100 µM in each case.

On to `Cc1nsc(NC(=O)N2CCC(F)CC2)n1` [S2–10], for which the “AR-TIF2 PPIB Cell Loss” value with U-2 OS cells is over 100 µM. Further, the GI50 (with DU-145 cells; in the series with PC-3 cells; with 22Rv1 cells; with LNCaP cells; in the series on C4–2 cells; in series [5]) was over 100 µM in each case.

For the compound `Cc1c(-c2ccccc2F)[nH]c2ccc(CNC(=O)c3cc[nH]n3)cc12` [S3–16], the IC50 – broadly, the concentration that gives 50% inhibition – on AR-TIF2 PPI [3] is 28.8 µM.

Consider `Cc1c(-c2ccccc2F)[nH]c2ccc(CNC(=O)CCC3=NNC(=O)CC3)cc12` [S3–18], for which the IC50 against AR-TIF2 PPI [3] is 39.6 µM; against AR-TIF2 PPI [4], over 100 µM.

Take `Cc1c(-c2ccccc2F)[nH]c2ccc(CNC(=O)Cc3cccnc3)cc12` [S3–19]: the IC50 at AR-TIF2 PPI [3] is 68.5 µM; at AR-TIF2 PPI [4], over 100 µM.

On AR-TIF2 PPI [3], `CCc1[nH]c2c(CNC(=O)CCCc3cn[nH]c3)cc(F)cc2c1C` [S3–25] displayed an IC50 of 77.1 µM.

With `Cc1cccc2c(-c3ccc4ccccc4n3)c[nH]c12` [VPC-13566, 2-(7-methyl-1H-indol-3-yl) quinoline], in series [6], the “CRPC tumor growth and serum PSA levels” value is “reduced CRPC tumor growth and serum PSA levels”.

As to `CC(C)NC(=O)c1cccc2nc(-c3cn(COP(=O)([O-])[O-])c4c(F)c(F)c(F)cc34)ccc12.[Na+].[Na+]` [VPC-13822], the “PSA production and CRPC tumor volume” value in series [6] was “reduced PSA production and CRPC tumor volume”. Besides, in series [6] (mouse, in vivo), the “Toxicity in xenograft models” value is given as “no observable toxicity”.

Take `CNC(=O)c1ccc(N2C(=S)N(c3ccc(C#N)c(C(F)(F)F)c3)C(=O)C2(C)C)cc1F` [enzalutamide, reference compound]: the “Reduction of DHT-enhanced PSA expression levels” value in the series on PSA [1] (25 μM for 3 h prior to 10 nM DHT, 24 h) is reported as 7.5 fold. Besides, the “Reduction of endogenous PSA expression levels” value in the series on PSA [1] (25 μM for 3 h prior to media, 24 h) came to 3.3 fold.
